From patent US20110190503A1, “Thiazolopyridin-2-yloxy-phenyl and thiazolopyrazin-2-yloxy-phenyl amines as modulators of leukotriene A4 hydrolase” (Janssen Pharmaceutical NV, priority 2008, published 2011)

Columns and labels:
[1] = target: T1, recombinant human LTA4 hydrolase (rhLTA4H) (Homo sapiens, UniProt P09960); experiment: Recombinant human LTA4 hydrolase assay for LTA4 hydrolase inhibitor activity; format: biochemical; settings: rhLTA4H, LTA4 substrate, LTB4 by immunoassay; single determination or average; read-out: IC50
T1 construct: made in house; host or cells: Spodoptera frugiperda (Sf-9) cells, recombinant baculovirus (pFastBac1)
T1 sequence (P09960 1-611): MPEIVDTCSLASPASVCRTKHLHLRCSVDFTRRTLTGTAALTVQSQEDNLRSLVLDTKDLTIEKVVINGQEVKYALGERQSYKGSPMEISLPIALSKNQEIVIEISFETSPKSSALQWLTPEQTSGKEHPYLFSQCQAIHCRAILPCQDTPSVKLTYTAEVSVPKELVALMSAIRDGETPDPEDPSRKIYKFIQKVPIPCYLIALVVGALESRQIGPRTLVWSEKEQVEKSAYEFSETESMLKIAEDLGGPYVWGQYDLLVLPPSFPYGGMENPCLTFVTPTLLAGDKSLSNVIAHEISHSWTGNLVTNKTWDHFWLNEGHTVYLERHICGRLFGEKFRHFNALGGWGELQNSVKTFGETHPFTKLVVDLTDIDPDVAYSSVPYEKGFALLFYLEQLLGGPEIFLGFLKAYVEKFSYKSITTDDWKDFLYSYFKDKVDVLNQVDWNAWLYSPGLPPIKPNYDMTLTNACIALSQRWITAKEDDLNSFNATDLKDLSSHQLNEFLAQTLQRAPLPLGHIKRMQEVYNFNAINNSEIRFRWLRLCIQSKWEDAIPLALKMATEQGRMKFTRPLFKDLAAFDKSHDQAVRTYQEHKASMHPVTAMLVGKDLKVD
Method in brief: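 LTB4 formed from LTA4 substrate (free acid from the methyl ester) was quantified by enzyme immunoassay after a 30 min rt reaction. Enzyme was 10 ng Sf-9-expressed human LTA4 hydrolase, pre-incubated 10 min with compound.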

[2] = test system: LTB4 production by calcium ionophore-stimulated murine blood; experiment: LTB4 production by calcium ionophore-stimulated murine blood for LTA4H inhibitor activity; format: cell-based, CD-1 mice; settings: Mus musculus; murine blood diluted 1 in 15, calcium ionophore A23187, LTB4 by immunoassay; read-out: IC50
Description: Assay 2: LTB4 Production by Calcium Ionophore-Stimulated Murine Blood for LTA4H Inhibitor Activity
CD-1 mice were sacrificed, and blood was collected in heparin-containing syringes by cardiac puncture. […] After the microtiter plate contents were incubated for 15 min at 37° C. in a humidified incubator, calcium ionophore A23187 (Sigma Chemical Co., St. Louis, Mo.) was added to each sample well (final concentration=7 μg/mL). The incubation was continued under the same conditions for an additional 30 min to allow LTB4 formation. The reaction was terminated by centrifugation (833×g, 10 min at 4° C.), and supernatants were analyzed for LTB4 by a commercially available enzyme-linked immunoassay (Cayman Chemical Co.) according to the manufacturer's instructions. Positive controls, under essentially identical conditions but without addition of an inhibitor compound, and negative unstimulated controls, containing all assay components except calcium ionophore, were routinely run in each experiment. […] The values presented here are the result of a single determination or an average of two or more determinations, as indicated in parentheses following each value. For compounds tested three or more times, the average value is followed by the standard deviation

Structure (SMILES) | IC50 [1] | IC50 [2]
c1cnc2nc(Oc3ccc(OCCN4CCC(Oc5ccncc5)CC4)cc3)sc2c1 [Example 13, 2-(4-{2-[4-(Pyridin-4-yloxy)piperidin-1-yl]ethoxy}phenoxy)[1,3]thiazolo[4,5-b]pyridine] | 0.013 µM | 0.12 µM
CCCN(CCc1ccc(Oc2nc3ncccc3s2)cc1)CC1CC1 [Example 57, N-(Cyclopropylmethyl)-N-{2-[4-([1,3]thiazolo[4,5-b]pyridin-2-yloxy)phenyl]ethyl}propan-1-amine] | 0.003 µM | 0.016 µM
OC1(c2ccccn2)CCN(CCOc2ccc(Oc3nc4ncccc4s3)cc2)CC1 [Example 5, 4-Pyridin-2-yl-1-{2-[4-([1,3]thiazolo[4,5-b]pyridin-2-yloxy)phenoxy]ethyl}piperidin-4-ol] | 0.014 µM | 0.14 µM
OC1(c2ccccc2)CCN(CCOc2ccc(Oc3nc4nccnc4s3)cc2)CC1 [Example 22, 4-Phenyl-1-{2-[4-([1,3]thiazolo[4,5-b]pyrazin-2-yloxy)phenoxy]ethyl}piperidin-4-ol] | 0.062 µM | 0.2 µM
NC(=O)N1C[C@H]2CC[C@@H](C1)N2Cc1ccc(Oc2nc3ncccc3s2)cc1 [Example 117, meso-8-[4-([1,3]Thiazolo[4,5-b]pyridin-2-yloxy)benzyl]-3,8-diazabicyclo[3.2.1]octane-3-carboxamide] | 0.009 µM | 0.018 µM
OC1(c2cccc(C(F)(F)F)c2)CCN(CCc2ccc(Oc3nc4ncccc4s3)cc2)CC1 [Example 64, 1-{2-[4-([1,3]Thiazolo[4,5-b]pyridin-2-yloxy)phenyl]ethyl}-4-[3-(trifluoromethyl)phenyl]piperidin-4-ol] | 0.027 µM | 0.22 µM
CC(=O)N1[C@@H]2CC[C@H]1C[C@@H](NCc1ccc(Oc3nc4ncccc4s3)cc1)C2 [Example 169, meso-(3-endo)-8-Acetyl-N-{[4-([1,3]thiazolo[4,5-b]pyridin-2-yloxy)phenyl]methyl}-8-azabicyclo[3.2.1]octan-3-amine] | 0.018 µM | 0.054 µM
CC(=O)N[C@H]1C[C@H]2CC[C@@H](C1)N2CCOc1ccc(Oc2nc3nccnc3s2)cc1 [Example 148, meso-N-[(3-endo)-8-{2-[4-([1,3]Thiazolo[4,5-b]pyrazin-2-yloxy)phenoxy]ethyl}-8-azabicyclo[3.2.1]oct-3-yl]acetamide] | 0.043 µM | 0.036 µM
c1ccc(C2CCN(CCc3ccc(Oc4nc5ncccc5s4)cc3)CC2)nc1 [Example 48, 2-{4-[2-(4-Pyridin-2-ylpiperidin-1-yl)ethyl]phenoxy}[1,3]thiazolo[4,5-b]pyridine] | 0.015 µM | 0.1 µM
CC(=O)N1C[C@H]2CC[C@@H](C1)N2Cc1ccc(Oc2nc3ncccc3s2)cc1 [Example 107, meso-2-(4-{[3-Acetyl-3,8-diazabicyclo[3.2.1]oct-8-yl]methyl}phenoxy)[1,3]thiazolo[4,5-b]pyridine] | 0.004 µM | 3 µM
OC1(c2ccccn2)CCN(Cc2ccc(Oc3nc4ncccc4s3)cc2)CC1 [Example 101, 4-Pyridin-2-yl-1-[4-([1,3]thiazolo[4,5-b]pyridin-2-yloxy)benzyl]piperidin-4-ol] | 0.011 µM | 0.003 µM
OC1(c2cccc(C(F)(F)F)c2)CCN(CCOc2ccc(Oc3nc4ncccc4s3)cc2)CC1 [Example 33, 1-{2-[4-([1,3]Thiazolo[4,5-b]pyridin-2-yloxy)phenoxy]ethyl}-4-[3-(trifluoromethyl)phenyl]piperidin-4-ol] | 0.017 µM | 0.48 µM
NC(=O)N[C@@H]1C[C@H]2CC[C@@H](C1)N2Cc1ccc(Oc2nc3ncccc3s2)cc1 [Example 110, meso-1-{(3-exo)-8-[4-([1,3]Thiazolo[4,5-b]pyridin-2-yloxy)benzyl]-8-azabicyclo[3.2.1]oct-3-yl}urea] | 0.001 µM | 1.44 µM
c1cnc2nc(Oc3ccc(OCCN4CCCC4)cc3)sc2c1 [Example 9, 2-[4-(2-Pyrrolidin-1-ylethoxy)phenoxy][1,3]thiazolo[4,5-b]pyridine] | 0.006 µM | 0.017 µM
O=C(O)C1CCN(CCc2ccc(Oc3nc4ncccc4s3)cc2)CC1 [Example 81, 1-{2-[4-([1,3]Thiazolo[4,5-b]pyridin-2-yloxy)phenyl]ethyl}piperidine-4-carboxylic acid] | 0.027 µM | 4.25 µM
OC1(c2ccc(Cl)cc2)CCN(CCc2ccc(Oc3nc4ncccc4s3)cc2)CC1 [Example 47, 4-(4-Chlorophenyl)-1-{2-[4-([1,3]thiazolo[4,5-b]pyridin-2-yloxy)phenyl]ethyl}piperidin-4-ol] | 0.034 µM | 0.21 µM

Now from value to compound:

IC50 [1] | IC50 [2] | Structure (SMILES)
0.004 µM | 0.462 µM | c1ccc(SC2CCN(Cc3ccc(Oc4nc5ncccc5s4)cc3)CC2)nc1 [Example 263, 2-(4-{[4-(Pyridin-2-ylsulfanyl)piperidin-1-yl]methyl}phenoxy)[1,3]thiazolo[4,5-b]pyridine]
0.072 µM | 0.088 µM | COc1ccccc1N1CCN(CCOc2ccc(Oc3nc4ncccc4s3)cc2)CC1 [Example 135, 2-(4-{2-[4-(2-Methoxyphenyl)piperazin-1-yl]ethoxy}phenoxy)[1,3]thiazolo[4,5-b]pyridine]
0.099 µM | 0.18 µM | COCCN(C)CCOc1ccc(Oc2nc3nccc(C)c3s2)cc1 [Example 160, N-Methyl-2-(methyloxy)-N-[2-({4-[(7-methyl[1,3]thiazolo[4,5-b]pyridin-2-yl)oxy]phenyl}oxy)ethyl]ethanamine]
0.015 µM | 0.21 µM | c1ccc(CC2CCN(Cc3ccc(Oc4nc5ncccc5s4)cc3)CC2)cc1 [Example 102, 2-{4-[(4-Benzylpiperidin-1-yl)methyl]phenoxy}[1,3]thiazolo[4,5-b]pyridine]
0.049 µM | 0.33 µM | CC(=O)NC1CCN(CCOc2ccc(Oc3nc4ncc(C)cc4s3)cc2)CC1 [Example 154, N-[1-(2-{4-[(6-Methyl[1,3]thiazolo[4,5-b]pyridin-2-yl)oxy]phenoxy}ethyl)piperidin-4-yl]acetamide]
0.03 µM | 0.024 µM | F[C@@H]1CCN(Cc2ccc(Oc3nc4ncccc4s3)cc2)C1 [Example 87, 2-(4-{[(3R)-3-Fluoropyrrolidin-1-yl]methyl}phenoxy)[1,3]thiazolo[4,5-b]pyridine]
0.03 µM | 0.159 µM | c1ccc(SC2CCN(Cc3ccc(Oc4nc5ncccc5s4)cc3)CC2)cc1 [Example 264, 2-(4-{[4-(Phenylsulfanyl)piperidin-1-yl]methyl}phenoxy)[1,3]thiazolo[4,5-b]pyridine]
0.012 µM | 0.019 µM | CC(=O)N1C[C@@H]2C[C@H]1CN2Cc1ccc(Oc2nc3nccc(C)c3s2)cc1 [Example 125, 2-(4-{[(1S,4S)-5-Acetyl-2,5-diazabicyclo[2.2.1]hept-2-yl]methyl}phenoxy)-7-methyl[1,3]thiazolo[4,5-b]pyridine]
0.004 µM | 0.067 µM | FC(F)(F)C1CCN(Cc2ccc(Oc3nc4ncccc4s3)cc2)CC1 [Example 92, 2-(4-{[4-(Trifluoromethyl)piperidin-1-yl]methyl}phenoxy)[1,3]thiazolo[4,5-b]pyridine]
0.032 µM | 0.091 µM | NC(=O)N1C[C@H]2C[C@@H]1CN2CCOc1ccc(Oc2nc3ncccc3s2)cc1 [Example 268, (1R,4R)-5-{2-[4-([1,3]Thiazolo[4,5-b]pyridin-2-yloxy)phenoxy]ethyl}-2,5-diazabicyclo[2.2.1]heptane-2-carboxamide]
0.047 µM | 3.3 µM | O=C(O)CCNCc1ccc(Oc2nc3ncccc3s2)cc1 [Example 275, N-[4-([1,3]Thiazolo[4,5-b]pyridin-2-yloxy)benzyl]-beta-alanine]
0.037 µM | 0.097 µM | COCCCN(CCOc1ccc(Oc2nc3ncccc3s2)cc1)C1CC1 [Example 272, N-(3-Methoxypropyl)-N-{2-[4-([1,3]thiazolo[4,5-b]pyridin-2-yloxy)phenoxy]ethyl}cyclopropanamine]
